Read-outs that look alike come from different tables or passages of the source.
Tests used:
Muscarinic M2 = molecular target: T1, Muscarinic M2 (Homo sapiens, UniProt P08172); assay: PDSP binding screen; conditions: for inhibition at 10 µM: read-out: Ki (nM) or % inhibition at 10 µM: M2
T1 sequence (P08172 1-466): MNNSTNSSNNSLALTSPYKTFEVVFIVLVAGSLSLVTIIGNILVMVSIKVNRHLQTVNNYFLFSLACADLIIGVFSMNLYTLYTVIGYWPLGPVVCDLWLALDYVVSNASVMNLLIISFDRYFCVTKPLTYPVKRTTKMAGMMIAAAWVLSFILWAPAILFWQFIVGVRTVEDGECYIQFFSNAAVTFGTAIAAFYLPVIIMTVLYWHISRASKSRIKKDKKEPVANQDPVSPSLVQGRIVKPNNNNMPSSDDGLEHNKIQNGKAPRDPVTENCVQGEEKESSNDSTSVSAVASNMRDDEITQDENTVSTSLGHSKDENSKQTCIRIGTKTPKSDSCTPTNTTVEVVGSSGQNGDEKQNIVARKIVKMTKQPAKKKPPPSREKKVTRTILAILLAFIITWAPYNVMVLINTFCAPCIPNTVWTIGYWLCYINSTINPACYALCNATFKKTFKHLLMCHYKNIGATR

Opioid MOR = Opioid MOR (Homo sapiens, UniProt P35372); assay: PDSP binding screen; conditions: for inhibition at 10 µM: read-out: Ki (nM) or % inhibition at 10 µM: MOR
[1] = molecular target: Benzodiazepine receptor (PBR) (Rattus norvegicus, UniProt P16257); assay: PDSP binding screen; conditions: for Ki (nM) or % inhibition at 10 µM: Benzodiazepine receptor (PBR): PDSP, HCl salts; for inhibition at 10 µM: read-out: Ki (nM) or % inhibition at 10 µM: Benzodiazepine receptor (PBR)
human D3 receptors = human D3 receptors (Homo sapiens, UniProt P35462); assay: β-arrestin recruitment assay (antagonist mode, competition with dopamine); type: cell-based; parameters: expressed in transfected cells; conditions: for Emax: percentage of the maximum inhibition of dopamine at EC80 concentration, read-out: Imax (% Control)
Experimental: Two different assays were used to evaluate the properties of the analogs described above. The receptor binding affinity was measured by radioligand binding assays using [^125I]IABN with D2 or D3 receptors highly expressed HEK293 cells. The functional activity of the analogs was determined using a β-arrestin recruitment assay. The assay was initially conducted in agonist binding mode to confirm that they function as antagonists at the D3 receptor. Once this efficacy was confirmed, the assay was conducted in antagonist mode to determine the ability of the antagonist to compete with dopamine at the D3 receptor. The results of the antagonist mode assay are reported as IC50 values.
CHO-K1 cells which were overexpressed human D3 receptors were cultured in assaycomplete^TM cell culture kit 107. Cells were seeded at a density of 25,000 cells per well of 96-well plate, and incubated at 5% CO2, 37 °C. Two days later, test compounds were dissolved in DMSO, and diluted with 11-point series in phosphate-buffered saline (PBS). Prepared compounds were added to the cells, and it was incubated for 30 min at 5% CO2, 37 °C. Then, cells were treated with 30 nM (EC80) of dopamine, and the plate was incubated another 90 min. PathHunter^TM detection reagent was added to each well, and then plate was incubated for 80 min at RT in the dark. The chemiluminescent signal was measured by PerkinElmer Enspire plate reader (PerkinElmer, Boston, MA). Data were analyzed by Prism followed by non-linear regression.

Adrenergic alpha2B = molecular target: T2, Adrenergic alpha2B (Homo sapiens, UniProt P18089); assay: PDSP binding screen
T2 sequence (P18089 1-450): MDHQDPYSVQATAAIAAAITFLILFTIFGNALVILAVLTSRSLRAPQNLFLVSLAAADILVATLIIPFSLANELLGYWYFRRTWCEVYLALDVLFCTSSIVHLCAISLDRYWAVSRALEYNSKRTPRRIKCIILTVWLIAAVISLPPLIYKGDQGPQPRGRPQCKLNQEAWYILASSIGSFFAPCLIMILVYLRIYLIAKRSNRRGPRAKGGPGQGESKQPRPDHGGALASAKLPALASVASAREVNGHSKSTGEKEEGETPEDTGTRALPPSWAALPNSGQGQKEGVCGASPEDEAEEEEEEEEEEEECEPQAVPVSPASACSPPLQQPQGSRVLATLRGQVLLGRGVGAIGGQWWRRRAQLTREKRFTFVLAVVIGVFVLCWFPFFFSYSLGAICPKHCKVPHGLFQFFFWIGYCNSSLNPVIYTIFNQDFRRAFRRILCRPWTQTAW

BZP Rat Brain Site = assay: PDSP binding screen; conditions: HCl salts
Opioid KOR = Opioid KOR (Homo sapiens, UniProt P41145); assay: PDSP binding screen
human D2 receptors = molecular target: T3, human D2 receptors (Homo sapiens, UniProt P14416); assay: Radioligand binding assay with [125I]IABN, D2 receptor
T3 construct: expressed in transfected cells; host or cells: HEK293
Experimental: Two different assays were used to evaluate the properties of the analogs described above. The receptor binding affinity was measured by radioligand binding assays using [^125I]IABN with D2 or D3 receptors highly expressed HEK293 cells. The functional activity of the analogs was determined using a β-arrestin recruitment assay. […] The results of the antagonist mode assay are reported as IC50 values.
Ki values for D2 and D3 receptors were measured using [^125I]IABN in human D2 and D3 receptors expressed in HEK cells, respectively. A filtration binding assay was used to characterize membrane-associated receptor binding properties. The details for the procedures were described in the literature.

Histamine H2 = Histamine H2 (Homo sapiens, UniProt P25021); assay: PDSP binding screen; conditions: for inhibition at 10 µM: read-out: Ki (nM) or % inhibition at 10 µM: H2
Serotonin 5-HT7A = Serotonin 5-HT7A (Homo sapiens, UniProt P34969); assay: PDSP binding screen; conditions: for inhibition at 10 µM: read-out: Ki (nM) or % inhibition at 10 µM: 5-HT7A
GABAA = assay: PDSP binding screen; conditions: HCl salts
Serotonin 5-HT1D = Serotonin 5-HT1D (Homo sapiens, UniProt P28221); assay: PDSP binding screen
Histamine H3 = Histamine H3 (Homo sapiens, UniProt Q9Y5N1); assay: PDSP binding screen; conditions: for inhibition at 10 µM: read-out: Ki (nM) or % inhibition at 10 µM: H3
[2] = potency for D3 receptors, CHO-K1 cells, vs 30 nM (EC80) dopamine, mean ± SD, three experiments, read-out: IC50
[3] = [125I]IABN, D2 receptors expressed in HEK cells, mean ± SEM, three experiments, HCl salts, read-out: Ki ± SEM (nM) D2

Sequence of Opioid MOR (P35372 whole entry): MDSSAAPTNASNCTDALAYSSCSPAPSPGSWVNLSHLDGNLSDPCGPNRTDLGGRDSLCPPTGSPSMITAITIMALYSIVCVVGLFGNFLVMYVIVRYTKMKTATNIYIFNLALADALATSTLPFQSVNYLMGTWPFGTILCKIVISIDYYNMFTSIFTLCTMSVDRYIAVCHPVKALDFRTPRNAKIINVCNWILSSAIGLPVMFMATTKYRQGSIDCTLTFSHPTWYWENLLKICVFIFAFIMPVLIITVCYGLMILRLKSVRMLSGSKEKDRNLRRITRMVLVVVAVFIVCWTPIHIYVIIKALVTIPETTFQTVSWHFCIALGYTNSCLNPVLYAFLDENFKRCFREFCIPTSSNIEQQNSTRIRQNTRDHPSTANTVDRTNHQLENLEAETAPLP
Sequence of Serotonin 5-HT1D (P28221 whole entry): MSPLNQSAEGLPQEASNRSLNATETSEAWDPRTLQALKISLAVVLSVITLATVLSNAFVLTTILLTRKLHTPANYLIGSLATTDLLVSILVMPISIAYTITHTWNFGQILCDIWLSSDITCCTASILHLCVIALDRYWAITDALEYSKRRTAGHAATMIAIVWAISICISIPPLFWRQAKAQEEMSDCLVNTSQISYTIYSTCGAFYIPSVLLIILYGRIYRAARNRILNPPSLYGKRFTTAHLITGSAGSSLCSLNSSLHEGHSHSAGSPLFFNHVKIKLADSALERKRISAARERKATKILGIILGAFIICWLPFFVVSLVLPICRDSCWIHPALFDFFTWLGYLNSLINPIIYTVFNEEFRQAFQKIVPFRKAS
T3 sequence (P14416 whole entry): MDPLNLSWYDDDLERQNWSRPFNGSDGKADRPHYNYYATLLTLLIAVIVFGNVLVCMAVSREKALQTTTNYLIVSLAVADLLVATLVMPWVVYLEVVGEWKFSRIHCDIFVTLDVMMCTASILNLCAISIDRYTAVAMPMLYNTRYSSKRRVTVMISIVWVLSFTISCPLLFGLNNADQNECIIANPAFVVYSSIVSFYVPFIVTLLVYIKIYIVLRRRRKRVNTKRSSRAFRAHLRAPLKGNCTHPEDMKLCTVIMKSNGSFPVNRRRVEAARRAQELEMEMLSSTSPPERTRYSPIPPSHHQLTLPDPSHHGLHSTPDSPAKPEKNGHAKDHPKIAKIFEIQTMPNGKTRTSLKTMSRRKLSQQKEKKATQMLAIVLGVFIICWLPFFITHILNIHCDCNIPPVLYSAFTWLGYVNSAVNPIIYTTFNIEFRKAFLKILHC
Sequence of human D3 receptors (P35462 whole entry): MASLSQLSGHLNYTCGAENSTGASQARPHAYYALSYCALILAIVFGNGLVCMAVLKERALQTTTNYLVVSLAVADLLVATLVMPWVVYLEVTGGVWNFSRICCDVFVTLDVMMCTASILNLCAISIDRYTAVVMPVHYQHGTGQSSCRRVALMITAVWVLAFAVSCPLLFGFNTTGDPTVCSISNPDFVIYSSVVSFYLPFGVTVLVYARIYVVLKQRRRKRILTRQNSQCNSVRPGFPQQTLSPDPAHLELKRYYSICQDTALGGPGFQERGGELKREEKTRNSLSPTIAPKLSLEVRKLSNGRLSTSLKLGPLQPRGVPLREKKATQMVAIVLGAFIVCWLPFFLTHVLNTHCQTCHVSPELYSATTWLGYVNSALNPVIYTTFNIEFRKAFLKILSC
Sequence of Histamine H2 (P25021 whole entry): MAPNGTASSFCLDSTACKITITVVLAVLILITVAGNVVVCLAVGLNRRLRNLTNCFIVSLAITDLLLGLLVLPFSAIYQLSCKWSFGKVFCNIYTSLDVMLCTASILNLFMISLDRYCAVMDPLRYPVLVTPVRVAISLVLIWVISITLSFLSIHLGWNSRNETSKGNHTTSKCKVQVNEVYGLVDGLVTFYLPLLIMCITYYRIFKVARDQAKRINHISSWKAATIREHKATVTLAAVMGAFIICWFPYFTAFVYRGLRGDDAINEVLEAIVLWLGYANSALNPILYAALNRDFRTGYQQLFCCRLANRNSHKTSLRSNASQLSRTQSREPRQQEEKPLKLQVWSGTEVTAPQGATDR
Sequence of Serotonin 5-HT7A (P34969 1-445 isoform P34969-2): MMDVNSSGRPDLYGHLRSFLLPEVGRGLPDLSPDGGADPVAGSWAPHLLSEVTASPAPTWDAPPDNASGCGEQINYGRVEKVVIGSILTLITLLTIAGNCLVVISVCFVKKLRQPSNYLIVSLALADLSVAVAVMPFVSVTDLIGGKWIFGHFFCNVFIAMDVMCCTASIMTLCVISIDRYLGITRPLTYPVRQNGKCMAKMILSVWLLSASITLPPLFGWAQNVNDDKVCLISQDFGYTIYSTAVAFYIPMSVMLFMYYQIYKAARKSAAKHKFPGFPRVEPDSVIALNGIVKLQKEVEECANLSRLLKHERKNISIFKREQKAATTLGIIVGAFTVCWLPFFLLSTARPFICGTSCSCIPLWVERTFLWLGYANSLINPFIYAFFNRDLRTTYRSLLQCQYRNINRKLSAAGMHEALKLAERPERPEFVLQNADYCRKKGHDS
Sequence of Opioid KOR (P41145 whole entry): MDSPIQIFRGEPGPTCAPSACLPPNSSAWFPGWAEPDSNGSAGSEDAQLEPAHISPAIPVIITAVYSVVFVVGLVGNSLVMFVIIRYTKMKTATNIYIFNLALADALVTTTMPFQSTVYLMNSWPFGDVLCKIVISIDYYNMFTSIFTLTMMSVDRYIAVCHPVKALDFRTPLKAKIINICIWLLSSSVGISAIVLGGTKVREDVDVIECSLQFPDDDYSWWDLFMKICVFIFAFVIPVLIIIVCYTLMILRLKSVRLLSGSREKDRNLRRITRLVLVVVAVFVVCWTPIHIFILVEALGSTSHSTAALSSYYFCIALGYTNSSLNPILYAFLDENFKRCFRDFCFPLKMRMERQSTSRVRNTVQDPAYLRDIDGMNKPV
Sequence of Histamine H3 (Q9Y5N1 whole entry): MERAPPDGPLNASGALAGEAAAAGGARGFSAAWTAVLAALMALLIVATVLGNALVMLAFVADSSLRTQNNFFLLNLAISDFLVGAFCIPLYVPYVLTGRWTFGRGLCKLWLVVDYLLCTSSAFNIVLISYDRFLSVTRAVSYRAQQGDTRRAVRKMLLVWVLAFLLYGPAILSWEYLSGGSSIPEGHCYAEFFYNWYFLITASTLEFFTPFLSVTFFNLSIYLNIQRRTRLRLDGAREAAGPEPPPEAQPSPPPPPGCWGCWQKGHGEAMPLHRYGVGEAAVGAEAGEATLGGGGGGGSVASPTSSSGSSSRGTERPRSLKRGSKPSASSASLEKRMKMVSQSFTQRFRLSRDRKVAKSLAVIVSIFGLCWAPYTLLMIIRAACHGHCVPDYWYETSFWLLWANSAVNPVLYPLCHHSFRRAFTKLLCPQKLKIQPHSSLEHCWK

SMILES	Ki (Muscarinic M2)	Ki (Opioid MOR)	Ki [1]	Ki (nM) or % inhibition at 10 µM: Benzodiazepine receptor (PBR) [1]	Emax (human D3 receptors)	IC50 (human D3 receptors; [2])	Ki (Adrenergic alpha2B)	Ki (nM) or % inhibition at 10 µM: BZP Rat Brain Site (BZP Rat Brain Site)	Ki (Opioid KOR)	Ki (human D2 receptors; [3])	Ki (Histamine H2)	inhibition at 10 µM (Serotonin 5-HT7A)	Ki (nM) or % inhibition at 10 µM: GABAA (GABAA)	Ki (Serotonin 5-HT1D)	inhibition at 10 µM (Histamine H3)	inhibition at 10 µM (Muscarinic M2)	Ki (Histamine H3)	inhibition at 10 µM (Opioid MOR)	inhibition at 10 µM [1]	inhibition at 10 µM (Histamine H2)	further results
CCCN(CCCNC(=O)c1ccc(-c2cccs2)cc1)CCNC(=O)c1cc(Br)cc(OC)c1OC [20a, 5-Bromo-2,3-dimethoxy-N-(2-(propyl(3-(4-(thiophen-2-yl)benzamido)propyl)amino)ethyl)benzamide]	4.93 µM	3.02 µM	0.009 µM	relatively high affinity	88.1 ± 20.4%	0.0265 ± 0.0129 µM	0.672 µM	N/A (N/A; not active means less than 50% inhibition that was obtained in primary binding assay at 10 µM of the compound)	0.116 µM	259 ± 23 nM	1.65 µM	< 50%	N/A (N/A; not active means less than 50% inhibition that was obtained in primary binding assay at 10 µM of the compound)	0.449 µM	< 50%						
CCN(CCCNC(=O)c1ccc(-c2ccsc2)cc1)CCNC(=O)c1cc(Br)cc(OC)c1OC [21g, 5-Bromo-N-(2-(ethyl(3-(4-(thiophen-3-yl)benzamido)propyl)amino)ethyl)-2,3-dimethoxybenzamide]		2.16 µM	0.006 µM	relatively high affinity	50.1 ± 20.9%	0.0368 ± 0.0357 µM	0.571 µM	N/A (N/A; not active means less than 50% inhibition that was obtained in primary binding assay at 10 µM of the compound)	0.17 µM	312 ± 18 nM	2.48 µM		N/A (N/A; not active means less than 50% inhibition that was obtained in primary binding assay at 10 µM of the compound)	1.82 µM		< 50%	4.81 µM				Ki (Serotonin 5-HT7A): 2.25 µM
CCN(CCCNC(=O)c1ccsc1)CCNC(=O)c1cc(Br)cc(OC)c1OC [21i, N-(3-((2-(5-Bromo-2,3-dimethoxybenzamido)ethyl)(ethyl)amino)propyl)thiophen-e-3-carboxamide]				relatively high affinity	99.6 ± 20.7%	0.0027 ± 0.0002 µM	2.95 µM	N/A (N/A; not active means less than 50% inhibition that was obtained in primary binding assay at 10 µM of the compound)		304 ± 7 nM		< 50%	N/A (N/A; not active means less than 50% inhibition that was obtained in primary binding assay at 10 µM of the compound)	3.14 µM	< 50%	< 50%		< 50%	< 50%	< 50%	inhibition at 10 µM (Opioid KOR; read-out: Ki (nM) or % inhibition at 10 µM: KOR): < 50%
CCN(CCCNC(=O)c1ccc(-c2cccs2)cc1)CCNC(=O)c1cc(Br)cc(OC)c1OC [9a, 5-Bromo-N-(2-(ethyl(3-(4-(thiophen-2-yl)benzamido)propyl)amino)ethyl)-2,3-dimethoxybenzamide]	1.2 µM	1.56 µM	1.45 µM		67.3 ± 18.9%		0.235 µM	N/A (N/A; not active means less than 50% inhibition that was obtained in primary binding assay at 10 µM of the compound)	0.107 µM		2.61 µM	< 50%	N/A (N/A; not active means less than 50% inhibition that was obtained in primary binding assay at 10 µM of the compound)	1.01 µM			5.58 µM				IC50 (human D3 receptors): 0.014 ± 0.0074 µM; Ki (human D2 receptors): 169 ± 4 nM
CCN(CCCNC(=O)c1ccc(-c2ccncc2)cc1)CCNC(=O)c1cc(Br)cc(OC)c1OC [21c, 5-Bromo-N-(2-(ethyl(3-(4-(pyridin-4-yl)benzamido)propyl)amino)ethyl)-2,3-dimethoxybenzamide]	1.66 µM				78.2 ± 18%	0.0013 ± 0.001 µM	0.909 µM	N/A (N/A; not active means less than 50% inhibition that was obtained in primary binding assay at 10 µM of the compound)	0.642 µM	107 ± 5 nM		< 50%	N/A (N/A; not active means less than 50% inhibition that was obtained in primary binding assay at 10 µM of the compound)	1.15 µM			4.73 µM	< 50%	< 50%	< 50%	
CCN(CCCNC(=O)c1cc2ccccc2[nH]1)CCNC(=O)c1cc(Br)cc(OC)c1OC [21d, N-(3-((2-(5-Bromo-2,3-dimethoxybenzamido)ethyl)(ethyl)amino)propyl)-1H-indole-2-carboxamide]		2.41 µM	1.22 µM		57.7 ± 26.9%	0.0093 ± 0.012 µM	0.386 µM	N/A (N/A; not active means less than 50% inhibition that was obtained in primary binding assay at 10 µM of the compound)	2.33 µM	148 ± 9 nM		< 50%	N/A (N/A; not active means less than 50% inhibition that was obtained in primary binding assay at 10 µM of the compound)	1.66 µM		< 50%	> 10 µM			< 50%	

Reference: PMC9820167, “Design and Synthesis of Conformationally Flexible Scaffold as Bitopic Ligands for Potent D3-Selective Antagonists” (International Journal of Molecular Sciences, 2022)
